After the bases stand the sugars from the 5' end (letter, count) and the backbone: PS all phosphorothioate, else s phosphorothioate and o phosphodiester by linkage. Methylation of C is not given here. e = 2'-O-(2-methoxyethyl) (MOE); k = constrained ethyl (cEt); d = 2'-deoxy (DNA); m = 2'-O-methyl
Molecular target: HSD17B13
Conditions: ASO, HepaRG

| Sequence | target mRNA inhibition (1 µM) [%] | other results |
| --- | --- | --- |
| CATACGCATGCGCAGT (sugars k3 d10 k3, PS) | 60 |  |
| CATAGACATGTGTTCA (sugars k3 d10 k3, PS) | 52 |  |
| CATAGCTAACTCAGGC (sugars k3 d10 k3, PS) | 29 |  |
| CATAGGCTTAGTGTAG (sugars k3 d10 k3, PS) | 38 |  |
| CATATCATTATCATGC (sugars k3 d10 k3, PS) | 66 |  |
| CATCATCGATGGAAGA (sugars k3 d10 k3, PS) | 14 |  |
| CATCTATCAGACTTCT (sugars k3 d10 k3, PS) | 38 |  |
| CATCTCTGGGACCAAG (sugars k3 d9 k3 e1, PS) | 42 |  |
| CATCTGTCTCCAATAC (sugars k3 d10 k3, PS) | 32 |  |
| CATCTTAAGATACCCA (sugars kkdddddddddkekek, PS) | 59 |  |
| CATGGCTACAGATTGG (sugars k3 d10 k3, PS) | 54 |  |
| CATTAGATGGTAAGGA (sugars k3 d10 k3, PS) | 32 |  |
| CATTTAGCAGCTTGGA (sugars k3 d10 k3, PS) | 88 | target mRNA inhibition (0.02 µM): 0%; target mRNA inhibition (0.078 µM): 0%; target mRNA inhibition (0.313 µM): 54%; target mRNA inhibition (1.25 µM): 75%; target mRNA inhibition (5 µM): 86% |
| CCAAACTTGCCCATAA (sugars k3 d10 k3, PS) | 45 |  |
| CCAACCAAACTTCCAG (sugars kkdddddddddkekek, PS) | 15 |  |
| CCAATATATACTGACA (sugars k3 d10 k3, PS) | 68 |  |
| CCAATATGCTCTGTCG (sugars k3 d10 k3, PS) | 65 |  |
| CCACAGAACCAATATG (sugars k3 d10 k3, PS) | 49 |  |
| CCACTATCAGAACAGT (sugars k3 d10 k3, PS) | 31 |  |
| CCACTGTGACGATGTG (sugars k3 d10 k3, PS) | 0 |  |
| CCAGAGCATTCATCAG (sugars k3 d10 k3, PS) | 83 | target mRNA inhibition (0.02 µM): 0%; target mRNA inhibition (0.078 µM): 13%; target mRNA inhibition (0.313 µM): 41%; target mRNA inhibition (1.25 µM): 71%; target mRNA inhibition (5 µM): 79% |
| CCAGATTGCACAAACC (sugars k3 d10 k3, PS) | 72 | target mRNA inhibition (0.02 µM): 0%; target mRNA inhibition (0.078 µM): 17%; target mRNA inhibition (0.313 µM): 51%; target mRNA inhibition (1.25 µM): 78%; target mRNA inhibition (5 µM): 92% |
| CCAGGTTGAGATAAAG (sugars k3 d10 k3, PS) | 49 |  |
| CCAGTAAAAAATTGGT (sugars k3 d10 k3, PS) | 23 |  |

| Sequence | target mRNA inhibition (1 µM) [%] | other results |
| --- | --- | --- |
| CCAGTACAGTTCCTTT (sugars kkdddddddddkekek, PS) | 75 | target mRNA inhibition (0.02 µM): 29%; target mRNA inhibition (0.078 µM): 21%; target mRNA inhibition (0.313 µM): 44%; target mRNA inhibition (1.25 µM): 61%; target mRNA inhibition (5 µM): 90% |
| CCATCTATCAGACTTC (sugars k3 d9 k3 e1, PS) | 60 |  |
| CCATTATCCTTACTCC (sugars k3 d10 k3, PS) | 27 |  |
| CCCAAACATGGATGTT (sugars k3 d10 k3, PS) | 72 |  |
| CCCAACCAAACTTCCA (sugars k3 d10 k3, PS) | 62 |  |
| CCCAACGCAACAGTTT (sugars k3 d10 k3, PS) | 66 | target mRNA inhibition (0.02 µM): 4%; target mRNA inhibition (0.078 µM): 26%; target mRNA inhibition (0.313 µM): 54%; target mRNA inhibition (1.25 µM): 78%; target mRNA inhibition (5 µM): 92% |
| CCCAAGAGTGGCAGGA (sugars k3 d10 k3, PS) | 29 |  |
| CCCATAACCATAGGAC (sugars k3 d10 k3, PS) | 47 |  |
| CCCGAATTATTTCTTG (sugars k3 d10 k3, PS) | 34 |  |
| CCCTAATGTGTTTTCC (sugars k3 d10 k3, PS) | 25 |  |
| CCGCGCTTATTAATAT (sugars k3 d10 k3, PS) | 21 |  |
| CCGTTTTGGGCTAATG (sugars k3 d9 k3 e1, PS) | 69 |  |
| CCGTUTTGGGCTAATG (sugars k3 d1 m1 d8 k3, PS) | 51 |  |
| CCTAAATTCAAAGACC (sugars k3 d10 k3, PS) | 64 |  |
| CCTAAGTTATTATCCC (sugars k3 d10 k3, PS) | 18 |  |
| CCTAATAACTACATGA (sugars k3 d10 k3, PS) | 3 |  |
| CCTAGTTGCAATGAGA (sugars k3 d10 k3, PS) | 77 |  |
| CCTAGTTTTCGGCACT (sugars k3 d10 k3, PS) | 62 |  |
| CCTATATACATCCAAG (sugars k3 d9 k3 e1, PS) | 63 |  |
| CCTCAAATGTCTTGGT (sugars k3 d10 k3, PS) | 6 |  |
| CCTCATTTAGCAGCTT (sugars k3 d10 k3, PS) | 81 | target mRNA inhibition (0.02 µM): 14%; target mRNA inhibition (0.078 µM): 34%; target mRNA inhibition (0.313 µM): 54%; target mRNA inhibition (1.25 µM): 78%; target mRNA inhibition (5 µM): 88% |
| CCTCCACACCGCGCTT (sugars k3 d10 k3, PS) | 16 |  |
| CCTCGATCCTATATAC (sugars k3 d1 m1 d8 k3, PS) | 9 |  |
| CCTCTAAGTTAGCCCC (sugars k3 d9 k3 e1, PS) | 16 |  |

| Sequence | target mRNA inhibition (1 µM) [%] | other results |
| --- | --- | --- |
| CCTCTAAGTTAGCCCC (sugars kkdddddddddkekek, PS) | 20 |  |
| CCTGATTTAGAGAGCG (sugars k3 d10 k3, PS) | 42 |  |
| CCTGTGTTAGCTTTAA (sugars k3 d9 k3 e1, PS) | 66 |  |
| CCTTAACAAACCTCCA (sugars k3 d10 k3, PS) | 27 |  |
| CCTTCATCTAACTAAC (sugars k3 d10 k3, PS) | 30 |  |
| CCTTCTGGTTCAGTCC (sugars k3 d10 k3, PS) | 72 | target mRNA inhibition (0.02 µM): 9%; target mRNA inhibition (0.078 µM): 20%; target mRNA inhibition (0.313 µM): 39%; target mRNA inhibition (1.25 µM): 68%; target mRNA inhibition (5 µM): 89% |
| CGACTTCATCTGTCTC (sugars k3 d10 k3, PS) | 19 |  |
| CGCCTAGTTTTCGGCA (sugars k3 d10 k3, PS) | 23 |  |
| CGCGAGATGATGTTGC (sugars k3 d10 k3, PS) | 53 |  |
| CGCGCTTATTAATATC (sugars k3 d10 k3, PS) | 6 |  |
| CGTAGCAAATGTAAGA (sugars k3 d10 k3, PS) | 0 |  |
| CGTCAAAAACCGTCAA (sugars k3 d10 k3, PS) | 20 |  |
| CGTTAGGTTTCCAAAT (sugars k3 d10 k3, PS) | 0 |  |
| CGTTTACTCACTTCTG (sugars k3 d10 k3, PS) | 21 |  |
| CGTTTATCATATGCTA (sugars k3 d10 k3, PS) | 88 | target mRNA inhibition (0.02 µM): 9%; target mRNA inhibition (0.078 µM): 29%; target mRNA inhibition (0.313 µM): 57%; target mRNA inhibition (1.25 µM): 77%; target mRNA inhibition (5 µM): 86% |
| CGTTTGACTGCTGCTA (sugars kkdddddddddkekek, PS) | 48 |  |
| CGTTTTGGGCTAATGA (sugars kkdddddddddkekek, PS) | 37 |  |
| CGTTUGACTGCTGCTA (sugars k3 d1 m1 d8 k3, PS) | 54 |  |
| CGTTUTGGGCTAATGA (sugars k3 d1 m1 d8 k3, PS) | 34 |  |
| CTAAAATTGTCTAAAC (sugars k3 d1 m1 d8 k3, PS) | 13 |  |
| CTAAACTAGTGGTAAT (sugars k3 d10 k3, PS) | 23 |  |
| CTAAAGCAGGCTACTT (sugars k3 d10 k3, PS) | 32 |  |
| CTAACTAACCTGACAC (sugars k3 d10 k3, PS) | 23 |  |
| CTAAGTTAGCCCCCAG (sugars k3 d10 k3, PS) | 15 |  |

| Sequence | target mRNA inhibition (1 µM) [%] | other results |
| --- | --- | --- |
| CTAATGAATCATGATT (sugars k3 d10 k3, PS) | 20 |  |
| CTAATGTATGAGGTCT (sugars k3 d10 k3, PS) | 46 |  |
| CTAATTTAGTCAACTT (sugars k3 d10 k3, PS) | 40 |  |
| CTACACTAATATTGAG (sugars k3 d9 k3 e1, PS) | 10 |  |
| CTACACTAATATTGAG (sugars k3 d10 k3, PS) | 20 |  |
| CTACATGTAAGGTTTT (sugars k3 d10 k3, PS) | 11 |  |
| CTACCTCTAAGTTAGC (sugars k3 d10 k3, PS) | 6 |  |
| CTAGAATTAAGGGCTA (sugars k3 d10 k3, PS) | 42 |  |
| CTAGATTCTACACTAA (sugars k3 d10 k3, PS) | 17 |  |
| CTAGGGAAATCTTTCA (sugars k3 d9 k3 e1, PS) | 55 |  |
| CTAGTGCCAAACCAAT (sugars k3 d9 k3 e1, PS) | 61 |  |
| CTAGTGCCAAACCAAT (sugars k3 d10 k3, PS) | 49 |  |
| CTAGTTGCAATGAGAT (sugars k3 d10 k3, PS) | 65 |  |
| CTATAGTAATCACAAG (sugars k3 d9 k3 e1, PS) | 53 |  |
| CTATAGTAATCACAAG (sugars kkdddddddddkekek, PS) | 36 |  |
| CTATAGTAATTGCTAT (sugars k3 d10 k3, PS) | 0 |  |
| CTATCAGACTTCTTAC (sugars k3 d10 k3, PS) | 39 |  |
| CTATCATGCCTTCCCC (sugars k3 d10 k3, PS) | 1 |  |
| CTCAATAACTGAGTTA (sugars k3 d10 k3, PS) | 4 |  |
| CTCATTATAAGCTAAC (sugars k3 d10 k3, PS) | 13 |  |
| CTCATTTATGTACCAA (sugars k3 d10 k3, PS) | 87 | target mRNA inhibition (0.02 µM): 0%; target mRNA inhibition (0.078 µM): 50%; target mRNA inhibition (0.313 µM): 75%; target mRNA inhibition (1.25 µM): 79% |
| CTCCAAATTCCCAACC (sugars k3 d10 k3, PS) | 31 |  |
| CTCCAAGGAGTGCATC (sugars k3 d10 k3, PS) | 53 |  |

Source: the OligoGym collection
